Assay [1] concerns isolated 23C6(+) human giant cells of bone. The assay can be described thus: TRAP activity in isolated human giant cells. In kind it is cell-based. Here is the method:
(§1) Osteoclast TRAP activity was measured using fluorescence spectroscopy as described by Chambers et al. (1987) with minor modifications. In brief, media from osteoclast cultures were harvested and stored at −70° C. until ready for assay.
(§2) The cells were washed with phosphate-buffered saline and harvested in 0.5 ml of Triton X-100 (0.05%, w/v). Aliquots of media or lysate 30 μl) were incubated with 170 μl of 2 mM methylumbelliferyl phosphate, pH 5.0, in 0.48 M acetate buffer (0.48 M sodium acetate, 0.48 M acetic acid, pH 5.0) and 30 mM tartaric acid. Samples were incubated for 30 min at 37° C. and the reaction terminated with 100 μl of stop solution containing 50 mM glycine, 50 mM EDTA, pH 10.4. Fluorescence was measured at excitation 360 nm and emission 448 nm using a fluorimeter (Fluoroskan, Flow Instruments). Enzyme activity was expressed as micromoles of methylumbelliferyl phosphate hydrolyzed/min/μg of protein and the protein content measured by the technique of Lowry et al. (1951).
Human giant cell tumors (normally discarded after surgery) were minced and passed through 1#40SS wire mesh screen, allowed to settle for 5 min, and the cell suspension above the sediment collected. […]

Assay [2] deals with isolated avian osteoclasts. The assay can be described thus: TRAP activity in isolated avian osteoclasts. The assay is classed as cell-based, Gallus domesticus. On the procedure:
Avian osteoclasts were isolated from medullary bone of laying White Leghorn hens Gallus domesticus (Pioneer Animal Supply, Kingswheel, Ohio) as described previously by Zambonin-Zallone and Teti (1981). In brief, bone marrow suspensions from the medullary bone of femora were filtered through Nytex cloth (110 μm, t'etko, Elmsford, N.Y.), centrifuged for 5 min at 1200 rpm, and the cell pellet resuspended in 0.2% NaCl for 3 min to lyse erythrocytes. After layering the cells on 100% fetal bovine serum for 1 h, sedimented cells were further filtered through Nytex filters (55 μm). Cells were harvested, resuspended in α-minimal Eagle's medium (GIBCO) containing 10 fetal bovine serum, with penicillin (100 units/ml), streptomycin (100 μg/ml), and Ara-C, to inhibit proliferation of nonosteoclastic cells. Cells were plated in 24- or 48-well plates (Costar, Cambridge, Mass.) at 1×10^4 cells/well and incubated at 37° C. in 10% CO2 humidified air for 48 h, after which they were washed to remove nonadherent cells. When matured osteoclasts were observed experiments were begun and terminated within 48 h.
as §1, §2

The subject of assay [3] is isolated 23C6+ human giant cells. The assay can be described thus: Pit formation by isolated human giant cells on sperm whale dentine. The assay is classed as cell-based. On the procedure: (§3) Quantitation of the effects of isolated osteoclasts on calcified matrices was determined using minor modifications of the disaggregated osteoclast resorption assay as described by Boyde et al. (1984). Sperm whale dentine (0.25×7×7 mm) was prepared using a Buehler low speed diamond saw (Buehler, Lake Bluff, Ill.) followed by sonication (15 min) in several changes of distilled water. Slices were sterilized using ultraviolet light.
(§4) Osteoclasts were stained for TRAP and counted and then pit numbers were counted following toluidine blue (0.1% w/v) staining by light microscopy. The plan area of matrix resorbed was quantitated using a computer-assisted morphometric program on a Bioquant System IV analysis system (R & M Biometrics, Nashville, Tenn.).
Human giant cell tumors (normally discarded after surgery) were minced and passed through 1#40SS wire mesh screen, allowed to settle for 5 min, and the cell suspension above the sediment collected. The cells were incubated with 23C6 monoclonal antibody that identifies the osteoclast vitronectin receptor (generously provided by Dr. Michael Horton) (1:10 dilution of hybridoma supernatant/10^6 cells) at 4° C. in serum-free medium for 30 min, after which immunomagnetic beads coated with anti-mouse IgG (Dynabead, Dynal, Inc., Great Neck, N.Y.) were added to the cell suspension. […]

The test system of a further assay is neonatal mouse calvariae. The assay can be described thus: Neonatal mouse (murine) calvarial assay, 45Ca release. In kind it is cell-based. Here is the method:
The assay was performed as described by Gowen et al. (1983). Timed pregnant mice were injected with ^45Ca 2 days before parturition. Half-calvaria were removed from the 1-2-day-old pups and preincubated for 24 h in BGJb medium at 37° C. in a humidified atmosphere of 5% CO2 before transfer to fresh media with or without test substances for 48 h. The bones were incubated for a further 72 h and media and bones collected. Bone-resorbing activity was expressed as the percentage of the total ^45Ca released into the medium.

A further assay relates to isolated rat osteoclasts. The assay is described as follows: Disaggregated rat osteoclast pit formation assay on sperm whale dentine. The assay is classed as cell-based. Here is the method:
as §3
Neonatal Sprague-Dawley rats (2-3 days) were sacrificed by decapitation, the femurs and tibias were removed, scraped free of adherent tissue, and trimmed free of the epiphyses. The bones from one litter were combined and quickly minced using a scalpel blade in 2 ml of 199 medium and then vigorously mixed with a pipette in an 8-ml tube, allowed to settle for 10 s, and then 100 μl of the suspension was added to each well for a total of 16 wells in a 48-well microtiter plate containing sperm whale dentine (approximately four neonates are used per 16 wells). The cells were incubated at 37° C. for 30 min at which time the dentine was removed, washed in media, and placed in a fresh 48-well plate containing 250 μl of test medium.
as §4
Quantitation of the effects of isolated neonatal rat osteoclasts on calcified matrices was determined using minor modifications of the disaggregated osteoclast resorption assay as described by Boyde et al (1984). Briefly rat osteoclasts isolated as described by Chambers et al. (1983) were dispersed on prewetted (AMEM plus 5% FBS) slices of sperm whale dentine. Cultures were performed in 48 well-microtiter plates in humidified air (10% CO2) at 37° C. in αMEM medium (one slice/well in 200 μl medium). Numbers of osteoclasts and resorption lacunae were quantitated as described above for the avian osteoclasts.

In another assay the test system is C433 cells. The assay is described as follows: Production of osteoclast-stimulating activity by C433 cells (conditioned medium bioassayed for TRAP in avian osteoclasts). The assay is classed as cell-based, human. The following applies: flurbiprofen 10^−5 M; indomethacin 10^−6 M; nordihydroguaiaretic acid 10^−6, 10^−5 or 10^−4 M. Here is the method:
FIG. 3A, FIG. 3B, FIG. 3C and FIG. 3D. Chemical characterization of activity. FIG. 3A. C433-conditioned medium was treated with ultraviolet-light (UV) for 24 h or placed in a boiling water bath (100° C.) for 15 min and bioassayed. FIG. 3B. amino peptidase M (A), carboxypeptidase (C), or Pronase-CB (P) were incubated in the presence of C433-conditioned medium for 12 h at 37° C. FIG. 3C. […] The resultant conditioned medium was bioassayed for activity. FIG. 3D. […] Conditioned medium was bioassayed for induction of TRAP activity in avian osteoclasts.
C433 cells were grown in 10% fetal bovine serum (Whittaker, Walkersville, Md.) 50% RPMI, 50% McCoys (Flow, McLean, Va.) until a density of 10^4 cells/ml was obtained, at which time the cells were harvested, washed, and placed in serum-free DMEM plus 10^−8 M, 1,25-(OH)2D3 for 48 h before harvest of conditioned medium. […] This conditioned medium was applied to a prewetted C18 Sep-Pak (Millipore, Waters, Milford, Mass.), and bound material was extracted using ethyl acetate. This material was dried under nitrogen and resuspended in water, it acetic acid and analyzed by high pressure measure liquid chromatography (HPLC) (Waters, Milford, Mass.) applied to a C8 semipreparative 25 cm×10 mm reverse phase column (Keystone Scientific, Inc., Bellefonte, Pa.) at 2 ml/min. The gradient was 0-100% methanol, 1% acetic acid over 60 min with 6-ml fractions collected. The fractions were dried under nitrogen, and those fractions to be assayed for osteoclast stimulating activity were stabilized with 20 μl of 10% bovine serum albumin. Fractions to be used for gas chromatography-mass spectrometric analysis were prepared for derivatization.

Setting [4] is: Lymphotoxin 5 × 10^−9M + NDGA 10^−5M.

Results on 3 compounds are retold here after patent US6455541B1, “Suppression, by 5-lipoxygenase inhibitors, of bone resorption” (Board of Regents, The University of Texas System, priority 1994, dated 2002).

Values joined by “and” are separate entries in the source; they are usually repeats but may differ in a detail not shown here. Equal values may be shown once. “Also recorded” adds a separate entry of the source. Read-outs that look alike come from different tables or passages of the source.

In the case of 5-hydroxyeicosatetraenoic acid [5-HETE], in assay [1], the “stimulation of TRAP activity in human giant cells (in words)” value is reported as “stimulated TRAP activity”. Besides, the “stimulation of TRAP activity” value in assay [1] (10^−10 M, 48 h) is listed as “maximally stimulated”; in assay [2] (10^−10 M, 48 h), “maximally stimulated”. In assay [2], the “stimulation of TRAP activity in avian osteoclasts (in words)” value is “stimulated TRAP activity”. In assay [2] (10^−8 M stimulates suboptimally), the “concentration of optimal stimulation of TRAP activity” value is reported as 10^−10 M. In addition, the “pit formation by human giant cells (in words)” value in assay [3] was “caused pit formation”. For the same compound, the “stimulation of bone resorption in neonatal mouse calvariae (in words)” value in the assay with neonatal mouse calvariae is “stimulated bone resorption”. Moreover, the “pit formation by isolated rat osteoclasts (in words)” value with isolated rat osteoclasts was “caused pit formation”.

`CCCCC/C=C\C\C=C/C=C/C=C/[C@@H](SC[C@H](NC(=O)CC[C@H](N)C(=O)O)C(=O)NCC(=O)O)[C@@H](O)CCCC(=O)O` [LTC4, leukotriene C4]: the “stimulation of pit formation” value in assay [3] (10^−10 M) is listed as “stimulated”.

As for `CC(Cc1ccc(O)c(O)c1)C(C)Cc1ccc(O)c(O)c1` (centres unmarked) [NDGA, nordihydroguaiaretic acid], the “inhibition of 1,25(OH)2 vitamin D3-induced bone resorption (in words)” value in the assay with neonatal mouse calvariae (1,25(OH)2 vitamin D3 as factor) is “no significance was observed”. For the same compound, the “45Ca release, Factor + NDGA” value with neonatal mouse calvariae (1,25D3 10^−10M + NDGA 10^−5M) was 31.7% and 29.2% and 32.5%; in the assay on neonatal mouse calvariae (IL-1 5 × 10^−10M + NDGA 10^−5M), 23.4% and 24.6%; in the assay with neonatal mouse calvariae (setting [4]) it was 26.8% and 35.5%; with neonatal mouse calvariae (PTH 4 ng/ml + NDGA 10^−5M), 30.6% and 31.2% and 28.6%; in the assay on neonatal mouse calvariae (TNF 2 × 10^−10M + NDGA 10^−5M), 27.8% and 31.9%. In addition, the “% Inhibition” value in the assay on neonatal mouse calvariae (1,25D3 10^−10M + NDGA 10^−5M) is 19.8% and 24.1%; with neonatal mouse calvariae (IL-1 5 × 10^−10M + NDGA 10^−5M) it was 32.8%; in the assay with neonatal mouse calvariae (setting [4]) it was 31.7%; in the assay on neonatal mouse calvariae (TNF 2 × 10^−10M + NDGA 10^−5M), 33.5%; in the assay with neonatal mouse calvariae (WR14 LPS 50 ng/ml + NDGA 10^−5M), 40.8%. The “Ca^45 Release, LPS + NDGA” value with neonatal mouse calvariae (AAY4 LPS 25 μg/ml + NDGA 10^−5M) stood at 13.6%. In the assay with neonatal mouse calvariae (AaY4 LPS 50 μg/ml + NDGA 10^−5M), the “45Ca release, LPS + NDGA” value is listed as 22.2%. For the same compound, in the assay with neonatal mouse calvariae (AaY4 LPS and/or WR14 LPS), the “inhibition of LPS-induced bone resorption (in words)” value is “significantly inhibited; also recorded: Significant inhibition”. Also, the “inhibition of IL-1-induced bone resorption (in words)” value in the assay with neonatal mouse calvariae (IL-1 as factor) is recorded as “significantly inhibits”. The inhibition at 10 µM in the assay with neonatal mouse calvariae (Mus musculus, 1,25D3 10^−10M + NDGA 10^−5M, read-out: % Inhibition) came out at 19.6%; in the assay on neonatal mouse calvariae (Mus musculus, AAY4 LPS 25 μg/ml + NDGA 10^−5M, read-out: % Inhibition), 120%; in the assay with neonatal mouse calvariae (Mus musculus, AaY4 LPS 50 μg/ml + NDGA 10^−5M, read-out: % Inhibition) it was 57.2%; in the assay with neonatal mouse calvariae (Mus musculus, IL-1 5 × 10^−10M + NDGA 10^−5M, read-out: % Inhibition), 30%; with neonatal mouse calvariae (Mus musculus, Lymphotoxin 5 × 10^−9M + NDGA 10^−5M) it was 48.8%; in the assay on neonatal mouse calvariae (Mus musculus, TNF 2 × 10^−10M + NDGA 10^−5M, read-out: % Inhibition) it was 43.2%. In addition, in the assay on neonatal mouse calvariae (Mus musculus, WR14 LPS 50 ng/ml + NDGA 10^−5M, read-out: % Inhibition), the inhibition at 10 µM was found to be 57.6%. For the same compound, in the assay on neonatal mouse calvariae (PTH as factor), the “inhibition of PTH-induced bone resorption (in words)” value is on record as “One out of three experiments showed significant inhibition”. Further, in the assay with neonatal mouse calvariae (TNF as factor), the “inhibition of TNF-induced bone resorption (in words)” value is on record as “significantly inhibits”. In the assay on neonatal mouse calvariae (lymphotoxin as factor), the “inhibition of lymphotoxin-induced bone resorption (in words)” value is listed as “significantly inhibits”. The “NDGA inhibition of lipopolysaccharide-induced bone resorption” value with neonatal mouse calvariae (two different preparations of lipopolysaccharide) is “Greater than 50%”. In the assay on isolated rat osteoclasts (NDGA 10^−6M, MK886 1 μg/ml, ZM 230,487 10 ng/ml, 20 hours), the “inhibition of PTH and PTHrP-induced bone resorption” value is “inhibition of the bone resorption was seen”. For the same compound, the “order of inhibitory effectiveness” value in the assay with isolated rat osteoclasts (PTH and PTHrP-induced bone resorption, NDGA 10^−6M, MK886 1 μg/ml, ZM 230,487 10 ng/ml) is recorded as “ZM230487>MK886>NDGA”. For the same compound, the “effect on production of C433 activity” value in the assay on C433 cells was “completely blocked”.
